What follows are compounds tested against T1, LPA1R (Homo sapiens, UniProt Q92633) (assay: Calcium flux assay: inhibition of LPA-stimulated Ca2+ flux (FLIPR, antagonist mode)). Conditions: LPA1R Ca2+ flux functional assay, LPA1R expressing cells challenged with EC80 of LPA, read-out: LPA1 R Antagonist Activity.
T1 construct: host or cells: LPA1R expressing cells (Millipore, GPCR Profiler)
Assay type: cell-based
Description: Inhibition of LPA-stimulated Ca^2+ flux was used to assess compound potency using FLIPR technology in a 96 well plate format. The assay buffer used was a modified Hanks Balanced Salt Solution (HBSS) where HBSS was supplemented to contain 20 mM HEPES and 2.5 mM Probenecid at pH7.4 (Millipore, GPCR Profiler®). LPA1R expressing cells (Millipore) were plated and prepared 24 hours prior to assay of test articles. Ca^2+ ion flux was assessed from fluorescence of a Fluo-based No Wash Ca^2+ dye. Antagonist data are generated from plates with LPA concentrations sufficient to generate 80% efficacy [EC80]. Percentage inhibition was calculated from a reduction of efficacy according to concentration of compounds of Formula I-VI. For dose responses the inhibition data was used to calculate compound IC50.
The agonist assay was conducted on a FLIPR^TETRA instrument where the test compound(s), vehicle controls, and reference agonist were added to the assay plate after a fluorescence baseline was established. The agonist assay was a total of 180 seconds and was used to assess each compound's ability to activate each GPCR assayed. Upon completion of the agonist assay, the assay plate was removed from the FLIPR^TETRA and incubated at 25° C. for seven (7) minutes. After the incubation period, the assay plate was placed back in the FLIPR^TETRA and the antagonist assay was initiated.
Antagonist Assay: Using EC80 potency values determined during the agonist assay, all pre-incubated sample compound wells were challenged with EC80 concentration of reference agonist after establishment of a fluorescence baseline. The antagonist assay was conducted using the same assay plate that was used for the agonist assay. The antagonist assay was conducted on a FLIPR^TETRA instrument where 9 vehicle controls and EC80 concentration of reference agonist were added to appropriate wells. The antagonist assay was a total of 180 seconds and was used to assess each compound's ability to inhibit each GPCR assayed.
Data Processing: All assay plate data were subjected to appropriate baseline corrections. After baseline corrections were applied, maximum fluorescence values were exported and data processed to calculate percentage activation (relative to Emax reference agonist and vehicle control values), percentage inhibition (relative to EC80 and vehicle control values), and additional statistical values (i.e. Z′, percentage variation between replicate data values) to assess the quality of each plate. Where assay plate data were rejected, additional experiments were conducted. All dose response curves were generated using GraphPad Prism. The curves were fit by utilizing “Sigmoidal Dose Response (Variable Slope)” equation where the bottom parameter was fixed to “0.” Where appropriate, the top parameter was fixed to “100” to better predict potency values when a full curve was not generated by the concentrations assayed.

T1 sequence (Q92633 whole entry): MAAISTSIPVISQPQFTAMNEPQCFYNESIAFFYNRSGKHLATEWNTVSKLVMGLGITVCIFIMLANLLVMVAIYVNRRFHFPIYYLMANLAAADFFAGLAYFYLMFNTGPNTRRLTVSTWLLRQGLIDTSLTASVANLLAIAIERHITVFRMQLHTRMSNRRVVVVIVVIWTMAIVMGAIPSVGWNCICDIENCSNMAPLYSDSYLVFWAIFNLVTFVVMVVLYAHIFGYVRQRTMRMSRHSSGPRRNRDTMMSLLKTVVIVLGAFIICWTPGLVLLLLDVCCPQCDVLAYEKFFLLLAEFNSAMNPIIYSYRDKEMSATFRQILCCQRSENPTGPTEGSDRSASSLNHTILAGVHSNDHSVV

| Structure (SMILES) | IC50 |
| --- | --- |
| C[C@@H](OC(=O)Nc1c(F)cnn1-c1ccc(-c2ccc(C3(C(=O)O)CC3)cc2)nc1)c1ccccc1Cl [Compound 1, (R)-1-(4-(5-(5-(((1-(2-chlorophenyl)ethoxy)carbonyl)amino)-4-fluoro-1H-pyrazol-1-yl)pyridin-2-yl)phenyl)cyclopropane-1-carboxylic acid] | < 0.3 µM |
| C[C@@H](OC(=O)Nc1c(Cl)cnn1-c1ccc(-c2ccc(C3(C(=O)O)CC3)cc2)nc1)c1ccccc1Cl [Compound 2, (R)-1-(4-(5-(4-chloro-5-(((1-(2-chlorophenyl)ethoxy)carbonyl)amino)-1H-pyrazol-1-yl)pyridin-2-yl)phenyl)cyclopropane-1-carboxylic acid] | < 0.3 µM |
| C[C@@H](OC(=O)Nc1c(F)cnn1-c1ccc(-c2ccc(C3(C(=O)O)CC3)cc2)cc1)c1ccccc1 [Compound 3, (R)-1-(4′-(4-fluoro-5-(((1-phenylethoxy)carbonyl)amino)-1H-pyrazol-1-yl)-[1,1′-biphenyl]-4-yl)cyclopropane-1-carboxylic acid] | < 0.3 µM |
| C[C@@H](OC(=O)Nc1c(Cl)cnn1-c1ccc(-c2ccc(C3(C(=O)O)CC3)cc2)cc1)c1ccccc1 [Compound 4, (R)-1-(4′-(4-chloro-5-(((1-phenylethoxy)carbonyl)amino)-1H-pyrazol-1-yl)-[1,1′-biphenyl]-4-yl)cyclopropane-1-carboxylic acid] | < 0.3 µM |
| C[C@@H](OC(=O)Nc1c(C#N)cnn1-c1ccc(-c2ccc(C3(C(=O)O)CC3)cc2)cc1)c1ccccc1 [Compound 5, (R)-1-(4′-(4-cyano-5-(((1-phenylethoxy)carbonyl)amino)-1H-pyrazol-1-yl)-[1,1′-biphenyl]-4-yl)cyclopropane-1-carboxylic acid] | < 0.3 µM |
| C[C@@H](OC(=O)Nc1c(C#N)cnn1-c1ccc(-c2ccc(C3(C(=O)O)CC3)cc2)cc1)c1ccccc1Cl [Compound 6, (R)-1-(4′-(5-(((1-(2-chlorophenyl)ethoxy)carbonyl)amino)-4-cyano-1H-pyrazol-1-yl)-[1,1′-biphenyl]-4-yl)cyclopropane-1-carboxylic acid] | < 0.3 µM |
| C[C@@H](OC(=O)Nc1c(F)cnn1-c1ccc(-c2ccc(C3(C(=O)O)CC3)c(F)c2)cc1)c1ccccc1 [Compound 7, (R)-1-(3-fluoro-4′-(4-fluoro-5-(((1-phenylethoxy)carbonyl)amino)-1H-pyrazol-1-yl)-[1,1′-biphenyl]-4-yl)cyclopropane-1-carboxylic acid] | < 0.3 µM |
| C[C@@H](OC(=O)Nc1c(F)cnn1-c1ccc(-c2ccc(C3(C(=O)O)CC3)cc2F)cc1)c1ccccc1 [Compound 8, (R)-1-(2-fluoro-4′-(4-fluoro-5-(((1-phenylethoxy)carbonyl)amino)-1H-pyrazol-1-yl)-[1,1′-biphenyl]-4-yl)cyclopropane-1-carboxylic acid] | < 0.3 µM |
| C[C@@H](OC(=O)Nc1c(Cl)cnn1-c1ccc(-c2ccc(C3(C(=O)O)CC3)c(F)c2)cc1)c1ccccc1 [Compound 9, (R)-1-(4′-(4-chloro-5-(((1-phenylethoxy)carbonyl)amino)-1H-pyrazol-1-yl)-3-fluoro-[1,1′-biphenyl]-4-yl)cyclopropane-1-carboxylic acid] | < 0.3 µM |
| C[C@@H](OC(=O)Nc1c(Cl)cnn1-c1ccc(-c2ccc(C3(C(=O)O)CC3)cc2F)cc1)c1ccccc1 [Compound 10, (R)-1-(4′-(4-chloro-5-(((1-phenylethoxy)carbonyl)amino)-1H-pyrazol-1-yl)-2-fluoro-[1,1′-biphenyl]-4-yl)cyclopropane-1-carboxylic acid] | < 0.3 µM |
| C[C@@H](OC(=O)Nc1c(F)cnn1-c1ccc(-c2ccc(C3(C(=O)O)CC3)cc2Cl)cc1)c1ccccc1 [Compound 11, (R)-1-(2-chloro-4′-(4-fluoro-5-(((1-phenylethoxy)carbonyl)amino)-1H-pyrazol-1-yl)-[1,1′-biphenyl]-4-yl)cyclopropane-1-carboxylic acid] | < 0.3 µM |
| C[C@@H](OC(=O)Nc1c(Cl)cnn1-c1ccc(-c2ccc(C3(C(=O)O)CC3)cc2Cl)cc1)c1ccccc1 [Compound 12, (R)-1-(2-chloro-4′-(4-chloro-5-(((1-phenylethoxy)carbonyl)amino)-1H-pyrazol-1-yl)-[1,1′-biphenyl]-4-yl)cyclopropane-1-carboxylic acid] | < 0.3 µM |
| Cc1cc(C2(C(=O)O)CC2)ccc1-c1ccc(-n2ncc(F)c2NC(=O)O[C@H](C)c2ccccc2)cc1 [Compound 13, (R)-1-(4′-(4-fluoro-5-(((1-phenylethoxy)carbonyl)amino)-1H-pyrazol-1-yl)-2-methyl-[1,1′-biphenyl]-4-yl)cyclopropane-1-carboxylic acid] | < 0.3 µM |
| Cc1cc(C2(C(=O)O)CC2)ccc1-c1ccc(-n2ncc(Cl)c2NC(=O)O[C@H](C)c2ccccc2)cc1 [Compound 14, (R)-1-(4′-(4-chloro-5-(((1-phenylethoxy)carbonyl)amino)-1H-pyrazol-1-yl)-2-methyl-[1,1′-biphenyl]-4-yl)cyclopropane-1-carboxylic acid] | < 0.3 µM |
| C[C@@H](OC(=O)Nc1c(F)cnn1-c1ccc(-c2ccc(C3(C(N)=O)CC3)cc2)cc1)c1ccccc1Cl [Compound 15, (R)-1-(2-chlorophenyl)ethyl (1-(4′-(1-carbamoylcyclopropyl)-[1,1′-biphenyl]-4-yl)-4-fluoro-1H-pyrazol-5-yl)carbamate] | < 0.3 µM |
| C[C@@H](OC(=O)Nc1c(F)cnn1-c1ccc(-c2ccc(C3(C(=O)NS(C)(=O)=O)CC3)cc2F)cc1)c1ccccc1Cl [Compound 16, (R)-1-(2-chlorophenyl)ethyl (4-fluoro-1-(2′-fluoro-4′-(1-((methylsulfonyl)carbamoyl)cyclopropyl)-[1,1′-biphenyl]-4-yl)-1H-pyrazol-5-yl)carbamate] | < 0.3 µM |
| C[C@@H](OC(=O)Nc1c(F)cnn1-c1ccc(-c2ccc(C3(C(=O)NS(C)(=O)=O)CC3)cc2F)cc1)c1ccccc1 [Compound 17, (R)-1-phenylethyl (4-fluoro-1-(2′-fluoro-4′-(1-((methylsulfonyl)carbamoyl)cyclopropyl)-[1,1′-biphenyl]-4-yl)-1H-pyrazol-5-yl)carbamate] | < 0.3 µM |
| C[C@@H](OC(=O)Nc1c(Cl)cnn1-c1ccc(-c2ccc(C3(C(=O)NS(C)(=O)=O)CC3)cc2F)cc1)c1ccccc1Cl [Compound 18, (R)-1-(2-chlorophenyl)ethyl (4-chloro-1-(2′-fluoro-4′-(1-((methylsulfonyl)carbamoyl)cyclopropyl)-[1,1′-biphenyl]-4-yl)-1H-pyrazol-5-yl)carbamate] | < 0.3 µM |
| C[C@@H](OC(=O)Nc1c(Cl)cnn1-c1ccc(-c2ccc(C3(C(=O)NS(C)(=O)=O)CC3)cc2)cc1)c1ccccc1 [Compound 19, (R)-1-phenylethyl (4-chloro-1-(4′-(1-((methylsulfonyl)carbamoyl)cyclopropyl)-[1,1′-biphenyl]-4-yl)-1H-pyrazol-5-yl)carbamate] | < 0.3 µM |
| C[C@@H](OC(=O)Nc1c(F)cnn1-c1ccc(-c2ccc(C3(C(=O)NS(C)(=O)=O)CC3)cc2)cc1)c1ccccc1Cl [Compound 20, (R)-1-(2-chlorophenyl)ethyl (4-fluoro-1-(4′-(1-((methylsulfonyl)carbamoyl)cyclopropyl)-[1,1′-biphenyl]-4-yl)-1H-pyrazol-5-yl)carbamate] | < 0.3 µM |
| C[C@@H](OC(=O)Nc1c(F)cnn1-c1ccc(-c2ccc(C3(c4nnn[nH]4)CC3)cc2)cc1)c1ccccc1Cl [Compound 21, (R)-1-(2-chlorophenyl)ethyl (1-(4′-(1-(1H-tetrazol-5-yl)cyclopropyl)-[1,1′-biphenyl]-4-yl)-4-fluoro-1H-pyrazol-5-yl)carbamate] | 1 to 50 µM |
| C[C@@H](OC(=O)Nc1c(Cl)cnn1-c1ccc(-c2ccc(C3(c4nnn[nH]4)CC3)cc2)cc1)c1ccccc1 [Compound 22, (R)-1-phenylethyl (1-(4′-(1-(1H-tetrazol-5-yl)cyclopropyl)-[1,1′-biphenyl]-4-yl)-4-chloro-1H-pyrazol-5-yl)carbamate] | < 0.3 µM |
| C[C@@H](OC(=O)Nc1c(Cl)cnn1-c1ccc(-c2ccc(C3(c4nnn[nH]4)CC3)cc2)cc1)c1ccccc1Cl [Compound 23, (R)-1-(2-chlorophenyl)ethyl (1-(4′-(1-(1H-tetrazol-5-yl)cyclopropyl)-[1,1′-biphenyl]-4-yl)-4-chloro-1H-pyrazol-5-yl)carbamate] | 1 to 50 µM |
| C[C@@H](OC(=O)Nc1c(Cl)cnn1-c1ccc(-c2ccc(C3(C(=O)NC#N)CC3)cc2)cc1)c1ccccc1 [Compound 24, (R)-1-phenylethyl (4-chloro-1-(4′-(1-(cyanocarbamoyl)cyclopropyl)-[1,1′-biphenyl]-4-yl)-1H-pyrazol-5-yl)carbamate] | 1 to 50 µM |

Reference: patent publication US20230286928A1, “HETEROCYCLIC COMPOUNDS USEFUL IN THE TREATMENT OF DISEASE” (Epigen Biosciences, Inc., priority 2018, published 2023)
